Test results from paper PMC5983544, “Muscarinic M5 receptors modulate ethanol seeking in rats” (Neuropsychopharmacology, 2018).

How the values were obtained:
rat M2 mAChR = biological target: T1, rat M2 mAChR (Rattus norvegicus, UniProt P10980); test: [3H]NMS equilibrium binding in whole CHO-rM2 cells; settings: rM2, [3H]NMS binding
T1 construct: host or cells: FlpIn CHO cells (Invitrogen)
T1 sequence (P10980 1-466): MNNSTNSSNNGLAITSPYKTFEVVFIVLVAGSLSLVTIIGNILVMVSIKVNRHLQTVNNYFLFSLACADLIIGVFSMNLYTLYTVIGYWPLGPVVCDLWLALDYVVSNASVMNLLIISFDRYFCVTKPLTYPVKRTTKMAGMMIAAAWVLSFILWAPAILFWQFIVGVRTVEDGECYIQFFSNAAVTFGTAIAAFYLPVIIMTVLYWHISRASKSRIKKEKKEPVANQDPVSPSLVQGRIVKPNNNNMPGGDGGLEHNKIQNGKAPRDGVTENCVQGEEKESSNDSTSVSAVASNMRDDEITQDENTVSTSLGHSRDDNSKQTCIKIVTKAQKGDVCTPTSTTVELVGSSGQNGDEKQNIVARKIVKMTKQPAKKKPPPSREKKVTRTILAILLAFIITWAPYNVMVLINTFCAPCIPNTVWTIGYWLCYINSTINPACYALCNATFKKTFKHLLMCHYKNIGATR
Experimental: (§1) Rat mAChR subtypes (rM1–rM5; Origene) and human cannabinoid 1 receptor (hCB1; ref. [24]) constructs were isogenically integrated into FlpIn CHO cells (Invitrogen) and cells were selected in the presence of […] hygromycin B at 37 °C, 5% CO2, as previously described for the human M1 mAChR [25]. All cells were sub-cultured and seeded as previously described for the CHO-hM5 cells.
(§2) [^3H]NMS equilibrium binding assays in CHO-rM1 to CHO-rM5 cells were performed as previously described for CHO-hM5 cells. For [^35S]GTPγS binding, CHO-rM2 and CHO-rM4 cell membranes were prepared as described in Supplementary information. Membrane [^35S]GTPγS binding was performed as described in ref [26]., except GDP and [^35S]GTPγS concentrations were 1 μM and 0.3 nM, respectively. [^3H](+)-pentazocine binding was performed as described in ref. [27].

rat M4 mAChR = biological target: T2, rat M4 mAChR (Rattus norvegicus, UniProt P08485); test: [3H]NMS equilibrium binding in whole CHO-rM4 cells; settings: rM4, [3H]NMS binding
T2 construct: host or cells: FlpIn CHO cells (Invitrogen)
T2 sequence (P08485 1-478): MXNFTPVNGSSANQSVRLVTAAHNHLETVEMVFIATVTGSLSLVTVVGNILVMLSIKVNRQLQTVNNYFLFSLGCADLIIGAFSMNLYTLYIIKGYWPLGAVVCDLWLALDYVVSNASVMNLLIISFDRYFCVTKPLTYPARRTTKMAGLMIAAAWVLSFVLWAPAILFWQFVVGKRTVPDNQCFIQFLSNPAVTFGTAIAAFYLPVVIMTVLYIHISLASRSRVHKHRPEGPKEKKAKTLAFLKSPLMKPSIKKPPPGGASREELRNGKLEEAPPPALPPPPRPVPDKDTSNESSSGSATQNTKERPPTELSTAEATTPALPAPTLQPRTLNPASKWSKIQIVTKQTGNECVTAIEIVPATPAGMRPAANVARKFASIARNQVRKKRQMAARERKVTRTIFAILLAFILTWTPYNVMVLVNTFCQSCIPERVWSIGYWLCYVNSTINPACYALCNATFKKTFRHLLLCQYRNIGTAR
Experimental: as §1, §2

rat M5 mAChR = biological target: T3, rat M5 mAChR (Rattus norvegicus, UniProt P08911); test: ACh-stimulated IP accumulation (IP-One) in CHO-rM5 cells; assay type: cell-based
T3 sequence (P08911 1-531): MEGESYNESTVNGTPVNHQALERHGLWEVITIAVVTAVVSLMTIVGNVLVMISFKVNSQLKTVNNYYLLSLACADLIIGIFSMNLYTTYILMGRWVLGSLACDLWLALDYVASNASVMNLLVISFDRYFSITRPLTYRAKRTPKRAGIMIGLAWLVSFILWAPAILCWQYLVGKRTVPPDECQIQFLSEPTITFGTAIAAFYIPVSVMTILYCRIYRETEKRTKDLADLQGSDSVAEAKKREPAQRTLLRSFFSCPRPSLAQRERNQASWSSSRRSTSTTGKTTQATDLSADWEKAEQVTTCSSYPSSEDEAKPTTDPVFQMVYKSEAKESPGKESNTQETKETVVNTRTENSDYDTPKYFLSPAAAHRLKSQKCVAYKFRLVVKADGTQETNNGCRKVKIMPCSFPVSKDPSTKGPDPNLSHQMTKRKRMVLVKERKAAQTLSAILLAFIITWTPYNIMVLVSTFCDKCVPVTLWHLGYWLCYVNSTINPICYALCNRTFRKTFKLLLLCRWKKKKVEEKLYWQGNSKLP
Experimental: (§3) The IP-One assay kit (Cisbio) was used for the direct quantitative measurement of inositol phosphate (IP) accumulation in CHO-rM1, CHO-rM3 or CHO-rM5 cells, as described previously. The CHO-hCB1 pERK1/2 assays were performed as described in ref [24].

rat M3 mAChR = biological target: T4, rat M3 mAChR (Rattus norvegicus, UniProt P08483); test: ACh-stimulated IP accumulation (IP-One) in CHO-rM3 cells; assay type: cell-based; settings: Fig. 2c
T4 construct: host or cells: FlpIn CHO cells (Invitrogen)
Experimental: as §3

[1] = Rat pharmacokinetics (intraperitoneal or oral dosing); assay type: in vivo
Experimental: ML375 pharmacokinetics after either intraperitoneal or oral dosing of rats was determined as described in Supplementary information.

[2] = tested on: ethanol-preferring (iP) rats; test: Locomotor activity; assay type: in vivo, rat; settings: 60 min
Experimental: Rats (n = 6) were habituated to the locomotor room for at least 3 h.

[3] = tested on: ethanol-preferring (iP) rats; test: Cue-induced reinstatement of ethanol seeking; assay type: in vivo, rat; settings: 3 × 30 mg/kg p.o.
Experimental: A separate cohort of rats (n = 11) underwent 12 weeks of operant ethanol (10% v/v) self-administration followed by extinction training, where lever presses had no programmed consequences. Extinction occurred in the absence of CS+ and S+ cues. […] Subsequently, rats were tested for cue-induced reinstatement by re-introduction of the ethanol-paired CS+ and S+ cues, but in the absence of reward delivery. Rats were then re-extinguished and submitted to a second reinstatement session with the counterbalanced treatment.

[4] = single 30 mg/kg oral dose, plasma

T4 sequence (P08483 whole entry): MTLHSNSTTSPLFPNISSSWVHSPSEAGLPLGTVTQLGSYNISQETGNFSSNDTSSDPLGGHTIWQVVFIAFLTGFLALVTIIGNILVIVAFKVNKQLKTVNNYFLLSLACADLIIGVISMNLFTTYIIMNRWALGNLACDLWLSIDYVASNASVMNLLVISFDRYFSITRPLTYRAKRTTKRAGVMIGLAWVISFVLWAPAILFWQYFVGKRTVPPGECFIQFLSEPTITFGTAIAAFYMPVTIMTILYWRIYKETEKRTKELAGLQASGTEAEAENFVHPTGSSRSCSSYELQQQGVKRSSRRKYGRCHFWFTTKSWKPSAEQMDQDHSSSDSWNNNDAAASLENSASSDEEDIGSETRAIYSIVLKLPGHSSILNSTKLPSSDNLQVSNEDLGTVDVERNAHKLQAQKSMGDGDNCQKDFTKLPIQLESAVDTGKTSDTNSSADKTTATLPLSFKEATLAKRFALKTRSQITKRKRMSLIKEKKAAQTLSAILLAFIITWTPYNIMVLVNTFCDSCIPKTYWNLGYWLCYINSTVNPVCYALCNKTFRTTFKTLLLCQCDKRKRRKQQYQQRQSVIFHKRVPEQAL

With `O=C(c1ccc(F)c(F)c1)N1CCN2C(=O)c3ccccc3[C@@]12c1ccc(Cl)cc1` [ML375, (S)-9b-(4-chlorophenyl)-1-(3,4-difluorobenzoyl)-2,3-dihydro-1H-imidazo[2,1-a]isoi ndol-5(9bH)-one] the “effect on ACh affinity” value (rat M2 mAChR) was “no significant effects”, the “effect on ACh affinity” value (rat M4 mAChR) was “no significant effects” and the “functional cooperativity between ML375 and ACh” value (rat M5 mAChR; rM5) was “high negative cooperativity”. For the same compound, the Kb (rat M5 mAChR; read-out: functional affinity pKB (converted)) was 155 nM, the “activity on ACh function at rM3” value (rat M3 mAChR) was “weak activity” and the clearance ([1]; 20 mg/kg i.p., 24 h profile) was “low clearance”. The terminal half-life ([1]; 20 mg/kg i.p., 24 h profile) was “long terminal half-life”, the Kp at 24 h ([1]; brain and plasma, ip, 20 mg/kg i.p., 24 h timepoint, read-out: brain-to-plasma ratio) was 3 ± 0.7 and the Cmax [1, 4] was 4.7 ± 0.7 µM. For the same compound, the Tmax [1, 4] was 7 h, the “locomotor activity vs vehicle” value ([2]; 30 mg/kg p.o., P = 0.53) was “no difference” and the “locomotor activity vs vehicle” value ([2]; 56.6 mg/kg p.o., P = 0.016) was “did reduce locomotor activity”. For the same compound, the “cue-induced reinstatement of ethanol seeking (active lever) vs vehicle” value ([3]; P = 0.015) was “significantly attenuated” and the “responding for the previously water-paired lever vs vehicle” value ([3]; P > 0.99) was “no differences”.
